Experimental data as given in patent US5162315A, “Penetration enhancers” (priority 1989, dated 1992).

Key:
[1] = type: in vitro ADME, human
Procedure: The compounds of the present invention were tested in vitro as penetration enhancers according to the procedure outlined below.
(§1) Human stratum corneum was isolated from full thickness human skin as described by Bronaugh et al., J. Pharm. Sci. 75, 1094 (1986). The skin was placed between the donor and the receptor compartments of diffusion cells in such a way that the dermal side of the skin faced the receptor compartment which was filled with normal saline (pH 7.2-7.4). The stratum corneum was equilibrated at 37° C. overnight prior to the application of a topical formulation or transdermal patch. All formulations were studied in triplicate.
(§2) About 500 mg of the following three Isosorbide Dinitrate (ISDN) formulations (40% ISDN & 60% Lactose) were applied to cover the stratum corneum surface within the donor compartment. The entire contents of the receptor compartment were removed at specific time intervals over 48 hours and replenished with fresh saline. The aliquots were analyzed by HPLC and the average cumulative amount of ISDN in micrograms permeating over the study period was calculated.
Procedure of Example 8 was repeated with the following

[2] = type: in vitro ADME, human; remark: listed apart in the source
Procedure: The compounds of the present invention were tested in vitro as penetration enhancers according to the procedure outlined below. The penetration enhancers were formulated with pharmacologically active agents in creams and permeation of the active agent through human stratum corneum in vitro was compared to control formulation without enhancer. Higher permeation of the active agent in presence of an enhancer exemplified the invention.
as §1, §2
Procedure of Example 8 was repeated with the following Haloperiodol Decanoate (HD) cream formulations. Saline in the receptor compartment was substituted with saline/isopropyl alcohol (1:1).

| Structure (SMILES) | Average Cumulative Amount of HC in Micrograms permeating over 48 hours [1] [Micrograms] | HC permeation compared to control cream [1] | HC permeation enhancement compared to cyclic isomer [1] | Average Cumulative Amount of HD in Micrograms permeating over 51 hours [2] [Micrograms] | HD permeation compared to control [2] |
| --- | --- | --- | --- | --- | --- |
| CCCCCCCCCCCC1=NCCN1CCO [1-(2-hydroxyethyl)-2-undecyl-2-imidazoline, reference compound] | 67.53 ± 3.34 |  |  |  |  |
| CCCCCCCCCCCC(=O)NCCNCCO [Example 1, N-[2-(2-hydroxyethyl)aminoethyl]dodecanamide] | 55.19 ± 5.16 | superior permeation as compared to control cream | as effective as its cyclic isomer |  |  |
| CCCCCCCCCCCC(=O)N1CCN(CCO)CC1 [Example 5, 1-(1-oxododecyl)-4-(2-hydroxyethyl)piperazine] |  |  |  | 936.66 ± 16.98 | higher HD permeation as compared to control |
| CCCCCCCCCC(=O)OC1(c2ccc(Cl)cc2)CCN(CCCC(=O)c2ccc(F)cc2)CC1 [HD, Haloperiodol Decanoate, reference compound] |  |  |  | 617.68 ± 17.68 |  |
